Reference: patent US4337199A, “Antibiotic β-lactam compounds, production thereof, and their use as antimicrobial agent” (Sanraku-Ocean Co., Ltd., priority 1978, dated 1982)
≈ marks a conversion by molar mass, not a printed value. Like-named read-outs stand apart in the source and are kept apart here.

Key:
[1] = system: Enterobacter aerogenes E19; experiment: minimum inhibitory concentration, agar dilution assay; format: cell-based; settings: Klebsiella aerogenes, E19; agar dilution, 35° C., 20 hours; read-out: minimum inhibitory concentration
Method in brief: (§1)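 Two-fold dilutions of compound in sterile water were mixed into molten brain heart infusion agar at about 60 °C. Plates were inoculated with Trypto-Soy broth cultures (35 °C, 18–20 h) diluted to approximately 10^8 cells/ml. After 20 h at 35 °C, MIC was taken as the lowest concentration showing no growth.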

[2] = system: Staphylococcus aureus FDA 209P; experiment: as above; format: cell-based; settings: FDA209P, read-out: minimum inhibitory concentration
Method in brief: as §1

Proteus mirabilis P6 = experiment: as above; format: cell-based; settings: P6, agar dilution, 35° C., 20 hours, read-out: minimum inhibitory concentration
Method in brief: as §1

Sarcina lutea = experiment: as above; format: cell-based; settings: Micrococcus luteus, read-out: minimum inhibitory concentration
Method in brief: as §1

[3] = system: Klebsiella pneumoniae K-13; experiment: as above; format: cell-based; settings: K13, agar dilution, 35° C., 20 hours, read-out: minimum inhibitory concentration
Method in brief: as §1

[4] = system: Staphylococcus aureus Smith; experiment: as above; format: cell-based; settings: agar dilution, 35° C., 20 hours, read-out: minimum inhibitory concentration
Method in brief: as §1

Enterobacter sp. E8 = experiment: as above; format: cell-based; settings: SP.E8, agar dilution, 35° C., 20 hours, read-out: minimum inhibitory concentration
Method in brief: as §1

Escherichia coli RGN 823 = experiment: as above; format: cell-based; settings: RGN823, agar dilution, 35° C., 20 hours, read-out: minimum inhibitory concentration
Method in brief: as §1

[5] = system: Staphylococcus aureus Russell; experiment: as above; format: cell-based; settings: agar dilution, 35° C., 20 hours, read-out: minimum inhibitory concentration
Method in brief: as §1

[6] = system: Comamonas terrigena B-996; experiment: as above; format: cell-based; settings: read-out: minimum inhibitory concentration
Method in brief: as §1

Proteus vulgaris GN76 = experiment: as above; format: cell-based; settings: GN76, agar dilution, 35° C., 20 hours, read-out: minimum inhibitory concentration
Method in brief: as §1

Serratia marcescens S18 = experiment: as above; format: cell-based; settings: S18, agar dilution, 35° C., 20 hours, read-out: minimum inhibitory concentration
Method in brief: as §1

[7] = system: Bacillus subtilis ATCC 6633; experiment: as above; format: cell-based; settings: read-out: minimum inhibitory concentration
Method in brief: as §1

Proteus rettgeri P7 = experiment: as above; format: cell-based; settings: Providencia rettgeri, P7; agar dilution, 35° C., 20 hours; read-out: minimum inhibitory concentration
Method in brief: as §1

Serratia marcescens T55 = experiment: as above; format: cell-based; settings: T55, agar dilution, 35° C., 20 hours, read-out: minimum inhibitory concentration
Method in brief: as §1

Enterobacter cloacae 45 = experiment: as above; format: cell-based; settings: Enterobacter cloacae, 45; agar dilution, 35° C., 20 hours; read-out: minimum inhibitory concentration
Method in brief: as §1

[8] = system: Pseudomonas aeruginosa IFO3445; experiment: as above; format: cell-based; settings: IFO3445, agar dilution, 35° C., 20 hours, read-out: minimum inhibitory concentration
Method in brief: as §1

[9] = system: Citrobacter freundii GN 346; experiment: as above; format: cell-based; settings: GN346, agar dilution, 35° C., 20 hours, read-out: minimum inhibitory concentration
Method in brief: as §1

Proteus sp. P22 = experiment: as above; format: cell-based; settings: agar dilution, 35° C., 20 hours; read-out: minimum inhibitory concentration
Method in brief: as §1

Alcaligenes faecalis A 1 = experiment: as above; format: cell-based; settings: A1, agar dilution, 35° C., 20 hours, read-out: minimum inhibitory concentration
Method in brief: as §1

[10] = system: Pseudomonas aeruginosa NCTC10490; experiment: as above; format: cell-based; settings: NCTC10490, agar dilution, 35° C., 20 hours, read-out: minimum inhibitory concentration
Method in brief: as §1

[11] = system: Staphylococcus epidermidis; experiment: as above; format: cell-based; settings: read-out: minimum inhibitory concentration
Method in brief: as §1

Providencia sp. P8 = experiment: as above; format: cell-based; settings: SP.P8, agar dilution, 35° C., 20 hours, read-out: minimum inhibitory concentration
Method in brief: as §1

Escherichia coli K-12 = experiment: as above; format: cell-based; settings: K12, agar dilution, 35° C., 20 hours, read-out: minimum inhibitory concentration
Method in brief: as §1

solubility = format: physicochemical
[12] = system: Gram-positive and Gram-negative bacteria; experiment: antibiotic activity (antimicrobial spectrum); format: cell-based; settings: comparison in words
Description: The minimum inhibitory concentrations of the compounds of formula (I-a-1) or (I-b-1) in Tables I-1 to I-7 and the known compounds in Table I-8 on the various microorganisms shown in the above tables were measured by an agar dilution assay method using a brain heart infusion agar medium "Difco" (a product of Difco Laboratories Inc.)
A sample of the test compound was dissolved in sterile distilled water and diluted to prepare a two-fold dilution series of the compound solution. In a petri plate of 9 cm diameter, 1 ml of the compound solution was added to 9 ml of molten sterile heart infusion agar medium (Difco Laboratories Inc.) at about 60° C. to prepare the compound-containing agar plate. An overnight culture of each test organism indicated in the above table which was prepared by stationary cultivation in Trypto-Soy broth (Eiken Chemi. Co., Ltd.) at 35° C. for 18 to 20 hours, was diluted with the Trypto-Soy broth to give approximately 10^8 cells/ml and the diluted inoculum was inoculated onto the compound-containing agar plates. After cultivating the plates at 35° C. for 20 hours, the growth of the organism was observed. The minimum concentration of the compound at which no growth of the microorganism was noted was determined, and defined as the minimum inhibitory concentration of the test compound.

[13] = system: Alcaligenes faecalis B326; experiment: minimum inhibitory concentration, agar dilution assay; format: cell-based; settings: read-out: minimum inhibitory concentration
Method in brief: as §1

[14] = system: Staphylococcus aureus Smith strain; experiment: Infection treating test; format: in vivo, Staphylococcus aureus (in ddy male mice); settings: sc, 2 h, mice infected intraperitoneally, 5×10^5 cells per mouse, subcutaneous, two hours after infection, read-out: CD50 (the source's name)
Description: The in vivo activities of the compounds of formula (I-d) were determined by using mice (five per group, ddy male mice, Shizuoka) which had been intraperitoneally infected with Staphylococcus aureus Smith strain in an amount of 5×10^5 cells per mouse. Two hours after the infection, an injection containing a sodium salt of each of the compounds of formula (I-d) was subcutaneously administered to the mice.

[15] = Test for concentration in blood (plasma of mouse, bioassay); format: in vivo; settings: sc, subcutaneous, 2 mg/mouse, average of five mice
Description: Typical species of the compounds of formula (I-d) were each administered subcutaneously to five mice in a dose of 2 mg. After 5 minutes from the administration, a small amount of blood was periodically drawn from the eyes of the mice into a heparinized capillary tube, and centrifuged. The concentration of the compound in the supernatant liquid (plasma) was determined by a bioassay method using Comamonas terrigena B-996.

[16] = agar dilution, 35° C., 20 hours
[17] = B996, agar dilution, 35° C., 20 hours
[18] = ATCC6633, agar dilution, 35° C., 20 hours

| Compound | MIC [1] | MIC [2, 16] | MIC (Proteus mirabilis P6) | MIC (Sarcina lutea; [16]) | MIC [3] | MIC [4] | MIC (Enterobacter sp. E8) | MIC (Escherichia coli RGN 823) | MIC [5] | MIC [6, 17] | MIC (Proteus vulgaris GN76) | MIC (Serratia marcescens S18) | MIC [7, 18] | MIC (Proteus rettgeri P7) | MIC (Serratia marcescens T55) | MIC (Enterobacter cloacae 45) | MIC [8] | MIC [9] | MIC (Proteus sp. P22) | MIC [11, 16] | also measured |
| --- | --- | --- | --- | --- | --- | --- | --- | --- | --- | --- | --- | --- | --- | --- | --- | --- | --- | --- | --- | --- | --- |
| CC(=O)NCCSC1=C(C(=O)O)N2C(=O)[C@H](C(C)O)[C@H]2C1 (stereo partly shown) [PS-3A, 3-(2-acetamidoethylthio)-6-(1-hydroxyethyl)-7-oxo-1-azabicyclo[3.2.0]hept-2-ene-2-carboxylic acid, reference compound] | 20.1 µg/mL (≈ 63.9 µM) | 0.31 µg/mL (≈ 0.986 µM) | 20.1 µg/mL (≈ 63.9 µM) | 0.63 µg/mL (≈ 2 µM) | 10 µg/mL (≈ 31.8 µM) | 1.25 µg/mL (≈ 3.98 µM) | 5 µg/mL (≈ 15.9 µM) | 5 µg/mL (≈ 15.9 µM) | 1.25 µg/mL (≈ 3.98 µM) | 0.08 µg/mL (≈ 0.254 µM) | 20.1 µg/mL (≈ 63.9 µM) | 10 µg/mL (≈ 31.8 µM) | 1.25 µg/mL (≈ 3.98 µM) | 20.1 µg/mL (≈ 63.9 µM) | 20.1 µg/mL (≈ 63.9 µM) | 10 µg/mL (≈ 31.8 µM) | 20.1 µg/mL (≈ 63.9 µM) | 10 µg/mL (≈ 31.8 µM) | 20.1 µg/mL (≈ 63.9 µM) | 2.5 µg/mL (≈ 7.95 µM) | MIC (Alcaligenes faecalis A 1): 1.25 µg/mL (≈ 3.98 µM); MIC [10]: 20.1 µg/mL (≈ 63.9 µM); MIC (Providencia sp. P8): 5 µg/mL (≈ 15.9 µM); MIC (Escherichia coli K-12): 2.5 µg/mL (≈ 7.95 µM); Solubility in acetone (solubility; acetone): substantially insoluble in acetone; Solubility in water (solubility; water): Readily soluble in water |
| CCC1C(=O)N2C(C(=O)O)=C(SCCNC(C)=O)CC12 (stereo not shown) [PS-5, 3-(2-acetaminothylthio)-6-ethyl-7-oxo-1-azabicyclo-[3.2.0]hept-2-ene-2-carboxylic acid, reference compound] | 3.13 µg/mL (≈ 10.5 µM) | 0.025 µg/mL (≈ 0.0838 µM) | 6.25 µg/mL (≈ 20.9 µM) | 0.05 µg/mL (≈ 0.168 µM) | 6.25 µg/mL (≈ 20.9 µM) | 0.1 µg/mL (≈ 0.335 µM) | 1.56 µg/mL (≈ 5.23 µM) | 3.13 µg/mL (≈ 10.5 µM) | 0.1 µg/mL (≈ 0.335 µM) | 0.013 µg/mL (≈ 0.0436 µM) | 12.5 µg/mL (≈ 41.9 µM) | 6.25 µg/mL (≈ 20.9 µM) | 0.1 µg/mL (≈ 0.335 µM) | 12.5 µg/mL (≈ 41.9 µM) | 6.25 µg/mL (≈ 20.9 µM) | 6.25 µg/mL (≈ 20.9 µM) | 25 µg/mL (≈ 83.8 µM) | 3.13 µg/mL (≈ 10.5 µM) | 25 µg/mL (≈ 83.8 µM) | 0.1 µg/mL (≈ 0.335 µM) | antibiotic activity (in words) [12]: better antibiotic activity than cephazolin (CEZ); MIC (Alcaligenes faecalis A 1): 0.39 µg/mL (≈ 1.31 µM); MIC [10]: 12.5 µg/mL (≈ 41.9 µM); MIC (Providencia sp. P8): 3.13 µg/mL (≈ 10.5 µM); MIC (Escherichia coli K-12): 1.56 µg/mL (≈ 5.23 µM) |
| CCCCSC1=C(C(=O)O)N2C(=O)C(C(C)C)C2C1 (stereo not shown) [R1 CH3, R21 (CH2CH3)3] | – | 0.48 µg/mL (≈ 1.69 µM) | – | 7.5 µg/mL (≈ 26.5 µM) | – | – | – | – | – | 0.48 µg/mL (≈ 1.69 µM) | – | – | 15 µg/mL (≈ 52.9 µM) | – | – | – | – | – | – | 0.12 µg/mL (≈ 0.423 µM) | MIC ([13]; B326, agar dilution, 35° C., 20 hours): 20 µg/mL (≈ 70.6 µM) |
| CC(=O)NCCSC1=C(C(=O)O)N2C(=O)[C@H](C(C)O)[C@H]2C1 (stereo partly shown) [PS-3A . Na] | – | – | – | – | – | – | – | – | – | – | – | – | – | – | – | – | – | – | – | – | ED50 [14]: 4 mg/kg; half-life ([15]; read-out: Half period): 12 min; Cmax ([15]; read-out: Maximum concentration): 52 µg/mL |
| CC(=O)NCCSC1=C(C(=O)O)N2C(=O)C(C(C)C)C2C1 (stereo not shown) [PS-6, 3-(2-acetamidoethylthio)-6-isopropyl-7-oxo-1-azabicyclo[3.2.0]hept-2-ene-2-carboxylic acid, reference compound] | 25 µg/mL (≈ 80 µM) | 0.1 µg/mL (≈ 0.32 µM) | 12.5 µg/mL (≈ 40 µM) | 0.39 µg/mL (≈ 1.25 µM) | 25 µg/mL (≈ 80 µM) | 0.2 µg/mL (≈ 0.64 µM) | 6.25 µg/mL (≈ 20 µM) | 6.25 µg/mL (≈ 20 µM) | 0.2 µg/mL (≈ 0.64 µM) | 0.1 µg/mL (≈ 0.32 µM) | 12.5 µg/mL (≈ 40 µM) | 25 µg/mL (≈ 80 µM) | 0.78 µg/mL (≈ 2.5 µM) | 6.25 µg/mL (≈ 20 µM) | 50 µg/mL (≈ 160 µM) | 25 µg/mL (≈ 80 µM) | 50 µg/mL (≈ 160 µM) | 12.5 µg/mL (≈ 40 µM) | 25 µg/mL (≈ 80 µM) | 0.39 µg/mL (≈ 1.25 µM) | antibiotic activity (in words) [12]: better antibiotic activity than cephazolin (CEZ); MIC (Alcaligenes faecalis A 1): 1.56 µg/mL (≈ 4.99 µM); MIC [10]: 50 µg/mL (≈ 160 µM); MIC (Providencia sp. P8): 6.25 µg/mL (≈ 20 µM); MIC (Escherichia coli K-12): 6.25 µg/mL (≈ 20 µM) |
| CCCCSC1=C(C(=O)[O-])N2C(=O)C(CC)C2C1.[Na+] (stereo not shown) [Example 68, Sodium 3-n-butylthio-6-ethyl-7-oxo-1-azabicyclo[3.2.0]hept-2-ene-2-carboxylate] | – | – | – | – | – | – | – | – | – | – | – | – | – | – | – | – | – | – | – | – | MIC ([2]; 20 h): 0.24 µg/mL; MIC (Sarcina lutea; 20 h): 1.88 µg/mL; MIC ([6]; B996, 20 h): 0.24 µg/mL; MIC ([7]; ATCC6633, 20 h): 3.75 µg/mL; MIC ([13]; B326, 20 h): 15 µg/mL; MIC ([11]; 20 h): 0.12 µg/mL |
